Measured values taken from patent publication US8957062B2, “Substituted cyclopropyl compounds, compositions containing such compounds and methods of treatment” (Merck Sharp & Dohme Corp., priority 2011, dated 2015).

These compounds were tested against T1, human GPR119 (Homo sapiens, UniProt Q8TDV5) (assay: Measurement of GPR119 signaling (cAMP assay) in cells stably transfected with human GPR119). Settings: cAMP stimulation; read-out: GPR119 HumC EC50.
T1 sequence (Q8TDV5 1-308 limits assumed): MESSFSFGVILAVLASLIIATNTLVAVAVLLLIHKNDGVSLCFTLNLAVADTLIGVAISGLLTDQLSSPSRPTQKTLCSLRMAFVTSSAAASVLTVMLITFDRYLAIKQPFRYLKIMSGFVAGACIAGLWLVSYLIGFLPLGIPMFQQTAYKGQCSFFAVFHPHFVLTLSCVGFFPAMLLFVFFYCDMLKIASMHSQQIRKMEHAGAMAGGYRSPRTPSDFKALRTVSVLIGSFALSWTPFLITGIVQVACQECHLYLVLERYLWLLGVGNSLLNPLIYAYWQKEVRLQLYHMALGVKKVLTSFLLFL
Format: cell-based
Description: Measurement of GPR119 Signaling (Cyclic AMP (cAMP) Assay)
The adenylate cyclase assay was constructed following the LANCE™ cAMP Kit (Perkin Elmer, AD0264) instructions.
The reaction was stopped by incubating with the supplied detection buffer containing the europium chelate of the Eu-SA/Biotin-cAMP tracer for 3 hours. The assay was performed in duplicate in a 384 well plate for duplicate plates and fluorescence was measured at 665 nm. Basal activity was determined using a DMSO control and maximum response was defined as cAMP stimulation produced by an internal agonist control. Standard cAMP concentrations were assayed concurrently for conversion of fluorescence signal to cAMP level. The data was analyzed using 4-parameter curve fit in Microsoft Excel.
Measurement of GPR119 Signaling (cAMP Homogenous Time Resolved Fluorescence (HTRF) Assay)
Chinese hamster ovary (CHO) cell lines stably transfected with the permissive guanine nucleotide binding protein alpha 15 (Gα15) and murine GPR119 were maintained in DMEM media containing FBS, penicillin-streptomycin, puromycin, and G418 (geneticin). […] Agonist activation of the GPR119 receptor was measured in receptor transfected cells described above, treated with compounds of this invention, using a commercial homogenous time resolved fluorescence (HTRF) kit for measurement of cAMP (CisBio, Bedford, Mass.). The assay was performed in 96-well half-volume plates (murine) or 384-well plates (human) following the manufacturers instructions. Briefly, suspended cells were incubated with a dose titration of test compound at RT for 60 min, lysed, and incubated with HTRF reagents for an additional 60 min. The plate was read using an Envision multilabel reader (Perkin Elmer) adjusted to read time resolved fluorescence and the cAMP concentrations were extrapolated from a cAMP calibration curve. […] The concentration of test compound required to stimulate a half-maximal response (EC50), and efficacy as compared to an internal agonist control, was determined from a sigmoidal 4-parameter curve fit of the resulting plot of normalized activity versus compound concentration.

Compound	EC50
CC(C)c1noc(N2CCC([C@H]3C[C@H]3CCOc3cc(F)c(CC(=O)N4CCC4)c(F)c3)CC2)n1 [Example 109]	0.24 nM
CC(C)c1noc(N2CCC([C@H]3C[C@H]3CCOc3cc(F)c(CC(=O)N(C)C)c(F)c3)CC2)n1 [Example 111]	0.26 nM
CC(C)c1noc(N2CCC([C@H]3C[C@H]3CCOc3cc(F)c(CC(=O)N4CCOCC4)c(F)c3)CC2)n1 [Example 114]	0.19 nM

Same assay, conditions: stated in the example text without 'GPR119'; read-out: Human EC50

Compound	EC50
CN(C)C(=O)Cc1cc(F)c(OCC[C@@H]2C[C@@H]2C2CCN(C(=O)OC3(C)CC3)CC2)cc1F [Example 62, 1-methylcyclopropyl 4-[(1R,2S)-2-(2-{4-[2-(dimethylamino)-2-oxoethyl]-2,5-difluorophenoxy}ethyl)cyclopropyl]piperidine-1-carboxylate]	2.2 nM

Same assay, conditions: stated in the example text; cAMP stimulation, human GPR119; read-out: GPR119 Human EC50

Compound	EC50
CC1(OC(=O)N2CCC([C@H]3C[C@H]3CCOc3ccc(CC(=O)N4CCC4)cc3)CC2)CC1 [Example 57]	5.9 nM
CC1(OC(=O)N2CCC([C@H]3C[C@H]3CCOc3ccc(-n4cnnn4)cc3)CC2)CC1 [Example 2, 1-methylcyclopropyl 4-((1R,2S)-2-(2-(4-(1H-tetrazol-1-yl)phenoxy)ethyl)cyclopropyl)piperidine-1-carboxylate]	1 nM
CS(=O)(=O)c1ccc(OCC[C@@H]2C[C@@H]2C2CCN(C(=O)OCC3CC3)CC2)nc1 [Example 13, cyclopropylmethyl 4-((1R,2S)-2-(2-(5-(methylsulfonyl)pyridin-2-yloxy)ethyl)cyclopropyl)piperidine-1-carboxylate]	0.3 nM
O=C(c1c(F)cc(OCC[C@@H]2C[C@@H]2C2CCN(c3nc4ncccn4n3)CC2)cc1F)C1CC1 [Example 251]	6 nM
CC(C)OC(=O)N1CCC([C@H]2C[C@H]2CCOc2cc(F)c(C(=O)C3CC3)c(F)c2)CC1 [Example 51]	0.8 nM
Cc1cc(OCC[C@@H]2C[C@@H]2C2CCN(C(=O)OC3(C)CC3)CC2)ccc1CC(=O)N1CCC1 [Example 60, 1-methylcyclopropyl-4-((1R,2S)-2-{2-[4-(2-azetidin-1-yl-2-oxoethyl)-3-methylphenoxy]ethyl}cyclopropyl)piperidine-1-carboxylate]	5.4 nM

Same assay, conditions: table column; cAMP stimulation, human GPR119; read-out: GPR119 Human EC50

Compound	EC50
CC(C)OC(=O)N1CCC([C@H]2C[C@H]2CCOc2ccc(S(C)(=O)=O)cn2)CC1 [Example 16]	46 nM
O=C(c1c(F)cc(OCC[C@@H]2C[C@@H]2C2CCN(c3nc4cnccn4n3)CC2)cc1F)C1CC1 [Example 252]	4.1 nM
CC(C)c1noc(N2CCC([C@H]3C[C@H]3CCOc3ccc(CC(=O)N4CCc5cncnc5C4)c(F)c3)CC2)n1 [Example 175]	3.2 nM
CC(C)c1noc(N2CCC([C@H]3C[C@H]3CCOc3ccc(CC(=O)N4CCc5cccnc5C4)c(F)c3)CC2)n1 [Example 181]	3.7 nM
COCc1noc(N2CCC([C@H]3C[C@H]3CCOc3ccc(CC(=O)N4CCC[C@H]4C(F)(F)F)c(F)c3)CC2)n1 [Example 204]	3.6 nM
CC(C)c1noc(N2CCC([C@H]3C[C@H]3CCOc3ccc(CC(=O)N4CCCC4)cc3)CC2)n1 [Example 126]	1.4 nM
COC(C)c1noc(N2CCC([C@H]3C[C@H]3CCOc3ccc(S(C)(=O)=O)cn3)CC2)n1 (stereo partly shown) [Example 215]	5.8 nM
Cc1cc(CC(=O)N2CC(F)(F)C2)cnc1OCC[C@@H]1C[C@@H]1C1CCN(c2nc(C(C)C)no2)CC1 [Example 260]	3.8 nM
CC(C)c1noc(N2CCC([C@H]3C[C@H]3CCOc3ccc(CC(=O)NC4CCCC4)c(F)c3)CC2)n1 [Example 156]	5.4 nM
O=C(c1c(F)cc(OCC[C@@H]2C[C@@H]2C2CCN(C(=O)OCc3ccccc3)CC2)cc1F)C1CC1 [Example 53]	18 nM
CC(C)c1noc(N2CCC([C@H]3C[C@H]3CCOc3ccc(CC(=O)N(C)C4(C)CCCC4)c(F)c3)CC2)n1 [Example 165]	8.1 nM
CC(C)c1noc(N2CCC([C@H]3C[C@H]3CCOc3ccc(CC(=O)N4Cc5sccc5C(O)C4)c(F)c3)CC2)n1 (stereo partly shown) [Example 189]	4.7 nM
CC(C)c1noc(N2CCC([C@H]3C[C@H]3CCOc3ccc(CC(=O)NC4CCC4)c(F)c3)CC2)n1 [Example 151]	3.2 nM
CC(C)c1noc(N2CCC([C@H]3C[C@H]3CCOc3ccc(CC(=O)N(C)C4CCOCC4)c(F)c3)CC2)n1 [Example 160]	4.8 nM
Cc1cc(-n2cnnn2)cnc1OCC[C@@H]1C[C@@H]1C1CCN(C(=O)OCc2ccccc2)CC1 [Example 31]	2.8 nM
CS(=O)(=O)c1ccc(OCC[C@@H]2C[C@@H]2C2CCN(C(=O)CC3CCCC3)CC2)nc1 [Example 88]	4.6 nM
CC1(OC(=O)N2CCC([C@H]3C[C@H]3CCOc3cc(F)c(C(=O)C4CC4)c(F)c3)CC2)CC1 [Example 54]	0.7 nM

Compound	EC50
CC(C)c1noc(N2CCC([C@H]3C[C@H]3CCOc3ccc(CC(=O)N4CCc5nccnc5C4)c(F)c3)CC2)n1 [Example 193]	1.3 nM
COC1CN(C(=O)Cc2cnc(OCC[C@@H]3C[C@@H]3C3CCN(c4nc(C(C)C)no4)CC3)c(C)c2)C1 [Example 261]	19 nM
CC(C)c1noc(N2CCC([C@H]3C[C@H]3CCOc3ccc(CC(=O)N4CCCCC4)c(F)c3)CC2)n1 [Example 145]	1.7 nM
CC(C)c1noc(N2CCC([C@H]3C[C@H]3CCOc3ccc(CC(=O)N4CCc5oncc5C4)c(F)c3)CC2)n1 [Example 177]	1.8 nM
CC(C)c1noc(N2CCC([C@H]3C[C@H]3CCOc3ccc(CC(=O)N4CC(n5cccn5)C4)c(F)c3)CC2)n1 [Example 187]	3 nM
CC(C)(CC(=O)N1CCC([C@H]2C[C@H]2CCOc2ccc(-n3cnnn3)cc2)CC1)C1CC1 [Example 80]	4 nM
CC(C)c1noc(N2CCC([C@H]3C[C@H]3CCOc3ccc(S(C)(=O)=O)cn3)CC2)n1 [Example 209]	2 nM
CS(=O)(=O)c1ccc(OCC[C@@H]2C[C@@H]2C2CCN(c3noc(C4CC4)n3)CC2)nc1 [Example 238]	22 nM
CS(=O)(=O)c1ccc(OCC[C@@H]2C[C@@H]2C2CCN(c3nc(C4CCC4)no3)CC2)nc1 [Example 212]	4.8 nM
CS(=O)(=O)c1ccc(OCC[C@@H]2C[C@@H]2C2CCN(C(=O)Cc3cccs3)CC2)nc1 [Example 91]	36 nM
Cc1cc(CC(=O)N2CC(C)(O)C2)cnc1OCC[C@@H]1C[C@@H]1C1CCN(c2nc(C(C)C)no2)CC1 [Example 262]	12 nM
O=C(OCc1ccccc1)N1CCC([C@H]2C[C@H]2CCOc2ccc(-n3cnnn3)cn2)CC1 [Example 33]	15 nM
CC(C)c1noc(N2CCC([C@H]3C[C@H]3CCOc3ccc(CC(=O)N(C)CC4CCC(=O)N4C)c(F)c3)CC2)n1 (stereo partly shown) [Example 169]	7.7 nM
CC1(OC(=O)N2CCC([C@H]3C[C@H]3CCOc3ccc(S(C)(=O)=O)cn3)CC2)CCC1 [Example 21]	0.6 nM
CC(C)c1noc(N2CCC([C@H]3C[C@H]3CCOc3ccc(CC(=O)N4CC(c5cccnc5)C4)c(F)c3)CC2)n1 [Example 190]	3.6 nM
CC(C)COC(=O)N1CCC([C@H]2C[C@H]2CCOc2ccc(S(C)(=O)=O)cn2)CC1 [Example 19]	12 nM
